The results in this text go back to ChEMBL document CHEMBL1201862, “PubChem BioAssay data set” (2004).

Holding throughout (assay): inhibition of tumour cell growth, NCI panel, 48 h
Experiment [1] concerns UACC-257.
The subject of experiment [2] is CCRF-CEM.
Experiment [3] has as its system KM12.
In experiment [4] the test system is SK-MEL-28.
The test system of experiment [5] is K562.
In experiment [6] the test system is A498.
For experiment [7], the system named is LOX IMVI.
For experiment [8], the system named is PC-3.
Experiment [9] concerns IGROV-1.
Experiment [10] has as its system DU-145.
Experiment [11] deals with NCI/ADR-RES.
Experiment [12] relates to RPMI-8226.
Experiment [13] deals with SF-268.
For experiment [14], the system named is MDA-MB-435.
The subject of experiment [15] is 786-0.
The subject of experiment [16] is MDA-N.
The subject of experiment [17] is HCT-116.
In experiment [18] the test system is SK-MEL-5.
The test system of experiment [19] is OVCAR-5.
Experiment [20] deals with Hs-578T.

Molecules are shown by their SMILES.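 1) Cells in 96-well plates. 2) Compound, 48 h, 5 concentrations. 3) Linear interpolation between surrounding doses. 4) Unreached endpoint = highest concentration. GI50 is the concentration that inhibits growth by half.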 Active and inactive are the calls of the source. Cut-off read from the data, not from the text of the source: active = GI50 up to about 1.1 µM and inactive = higher.

`CCOP(=O)(OCC)C(Nc1cccc([N+](=O)[O-])c1)c1ccccc1` (stereo unspecified): the GI50 in [1] is 72.1 µM (inactive); in [2], 68.1 µM (inactive); in [3] it was > 100 µM (inactive); in [4] it was > 100 µM (inactive); in experiment [5] it was 38.2 µM (inactive); in [6] it was > 100 µM (inactive). The GI50 in experiment [7] was 73.3 µM (inactive); in experiment [8] it was 38.6 µM (inactive); in [9], 0.108 µM (active); in experiment [10], > 100 µM (inactive); in experiment [11] it was 97.1 µM (inactive); in experiment [12], 76.7 µM (inactive). Also, the GI50 in [13] was > 100 µM (inactive); in experiment [14], > 100 µM (inactive); in experiment [15] it was > 100 µM (inactive); in experiment [16] it was > 100 µM (inactive); in experiment [17], 65 µM (inactive); in [18] it was 64.3 µM (inactive). The GI50 in [19] is > 100 µM (inactive).
For the compound `Sc1nnc(CCCCCCCCc2nnc(S)o2)o1`, the GI50 in experiment [1], in experiment [2], in experiment [3], in experiment [4], in experiment [5] and in experiment [6] was > 100 µM (inactive) each time. The GI50 in experiment [7], in [8], in experiment [9], in experiment [10], in [11] and in experiment [13] was > 100 µM (inactive) in each case. The GI50 in experiment [14], in [15], in experiment [16], in [17], in experiment [18] and in experiment [19] was > 100 µM (inactive) throughout.
Take `Cc1ccc(S(=O)(=O)OCCC2CN(C(=O)OCc3ccccc3)C(C)(C)O2)cc1` (stereo unspecified): the GI50 was 7.41 µM (inactive) in [1]; 14.4 µM (inactive) in [2]; 2.75 µM (inactive) in experiment [3]; 11.4 µM (inactive) in [4]; 8.63 µM (inactive) in experiment [5]; > 100 µM (inactive) in [6]. Besides, the GI50 in [7] is 10.8 µM (inactive); in experiment [8], 4.79 µM (inactive); in [9], 7.08 µM (inactive); in experiment [10] it was 57.8 µM (inactive); in experiment [11] it was 2.4 µM (inactive); in experiment [12], 3.92 µM (inactive). Further, the GI50 was 3.61 µM (inactive) in experiment [14]; 11.6 µM (inactive) in experiment [15]; 12.5 µM (inactive) in experiment [16]; 7.23 µM (inactive) in experiment [17]; 2.72 µM (inactive) in experiment [18]; > 100 µM (inactive) in experiment [19].
As for `COc1cc(CNC(=S)CCCCCCCCCCC(C)C)ccc1O`, the GI50 is 38.5 µM (inactive) in [1]; 1.19 µM (inactive) in experiment [2]; 28.4 µM (inactive) in [3]; > 100 µM (inactive) in [4]; 35.2 µM (inactive) in experiment [5]; 31.6 µM (inactive) in experiment [6]. Moreover, the GI50 in experiment [7] was 41.9 µM (inactive); in [9], 44.2 µM (inactive); in [10] it was > 100 µM (inactive); in [11] it was 46.3 µM (inactive); in experiment [12], 37.2 µM (inactive); in experiment [13] it was > 100 µM (inactive). In addition, the GI50 is 41.9 µM (inactive) in experiment [14]; 63.5 µM (inactive) in experiment [15]; 31.6 µM (inactive) in experiment [17]; 36.2 µM (inactive) in experiment [18]; 22.2 µM (inactive) in [20]; > 100 µM (inactive) in experiment [19].
As to `COC(=N)C12C(N)=NC(OC)(OC)C1(C#N)C21C(=O)N(c2ccccc2)N=C1C` (stereo unspecified), the GI50 in [1] is > 100 µM (inactive); in [2], 36.2 µM (inactive); in experiment [3], > 100 µM (inactive); in experiment [4], > 100 µM (inactive); in experiment [5], > 100 µM (inactive); in [6] it was > 100 µM (inactive). The GI50 in experiment [8], in [9], in experiment [10], in [11], in [12] and in experiment [13] was > 100 µM (inactive) throughout. In addition, the GI50 in experiment [14], in experiment [15], in experiment [16], in [17] and in experiment [19] was > 100 µM (inactive) throughout.
`C=C(C)CCC(O)[C@](C)(O)[C@H]1[C@H](O)C[C@@]2(C)[C@@H]3CCc4c(cc(OC5OC(CO)C(O)C(O)C5O)c(O)c4C)C3(C)C(=O)C[C@]12C` (stereo partly specified): the GI50 in [1], in experiment [2], in experiment [3], in experiment [4], in experiment [5] and in experiment [6] was > 100 µM (inactive) in each case. The GI50 in experiment [7], in experiment [8], in [9], in experiment [10], in experiment [11] and in experiment [13] was > 100 µM (inactive) throughout. Further, the GI50 in experiment [14] was > 100 µM (inactive); in [15], > 100 µM (inactive); in experiment [16], > 100 µM (inactive); in experiment [17], > 100 µM (inactive); in experiment [18], > 10 µM (inactive); in experiment [19] it was > 100 µM (inactive).
Take `O=C1/C(=C/c2ccc(O)c(O)c2)CC/C1=C\c1ccc(O)c(O)c1`: the GI50 in experiment [1] is 20.8 µM (inactive); in experiment [2], 1.65 µM (inactive); in [3], 9.79 µM (inactive); in experiment [4], 14.2 µM (inactive); in [5] it was 3.24 µM (inactive); in experiment [6] it was 17 µM (inactive). Besides, the GI50 in experiment [7] is 6.67 µM (inactive); in experiment [8], 11.8 µM (inactive); in [9], 3.74 µM (inactive); in experiment [10], 9.46 µM (inactive); in experiment [11], 8.24 µM (inactive); in [12] it was 2.23 µM (inactive). Also, the GI50 in [13] was 5.52 µM (inactive); in [14] it was 4.68 µM (inactive); in experiment [15], 3.83 µM (inactive); in experiment [16], 4.61 µM (inactive); in experiment [17] it was 3.58 µM (inactive); in experiment [18], 4.03 µM (inactive). For the same compound, in experiment [19], the GI50 is > 42.2 µM (inactive).
As to `COc1cc(/C=C\c2ccc(Br)cc2)cc(OC)c1OC`, the GI50 is 0.000414 µM (active) in experiment [1]; 0.000352 µM (active) in experiment [2]; 0.000612 µM (active) in experiment [3]; 0.1 µM (active) in experiment [4]; 0.000386 µM (active) in [5]; 0.01 µM (active) in experiment [6]. Moreover, the GI50 in experiment [7] is 0.000811 µM (active); in [9], 0.0124 µM (active); in [12], 0.000582 µM (active); in experiment [13], 0.000792 µM (active); in [15], 0.00043 µM (active); in [17] it was 0.000515 µM (active). For the same compound, the results for the GI50 in [18] and in [19] were 0.000527 µM (active) and 35.4 µM (inactive), respectively.
